# In US5739123A, “Phosphinic acid derivatives with metallopeptidase inhibitory activity” (Zambon Group S.p.A., priority 1994, dated 1998):
# Structures can show the parent of a compound that is named as a salt.
# Legend:
# [1] = biological target: T1, ACE (Oryctolagus cuniculus, UniProt P12822); experiment: ACE-inhibitory activity, in vitro (FAPGG substrate); format: biochemical; conditions: ACE purified from lung rabbit; FAPGG 0.8 mM; 37° C.; 340 nm, 5 minutes; tested as lithium or sodium salts
# T1 construct: purchased SIGMA; host or cells: rabbit lung (purified)
# T1 sequence (P12822 34-1310): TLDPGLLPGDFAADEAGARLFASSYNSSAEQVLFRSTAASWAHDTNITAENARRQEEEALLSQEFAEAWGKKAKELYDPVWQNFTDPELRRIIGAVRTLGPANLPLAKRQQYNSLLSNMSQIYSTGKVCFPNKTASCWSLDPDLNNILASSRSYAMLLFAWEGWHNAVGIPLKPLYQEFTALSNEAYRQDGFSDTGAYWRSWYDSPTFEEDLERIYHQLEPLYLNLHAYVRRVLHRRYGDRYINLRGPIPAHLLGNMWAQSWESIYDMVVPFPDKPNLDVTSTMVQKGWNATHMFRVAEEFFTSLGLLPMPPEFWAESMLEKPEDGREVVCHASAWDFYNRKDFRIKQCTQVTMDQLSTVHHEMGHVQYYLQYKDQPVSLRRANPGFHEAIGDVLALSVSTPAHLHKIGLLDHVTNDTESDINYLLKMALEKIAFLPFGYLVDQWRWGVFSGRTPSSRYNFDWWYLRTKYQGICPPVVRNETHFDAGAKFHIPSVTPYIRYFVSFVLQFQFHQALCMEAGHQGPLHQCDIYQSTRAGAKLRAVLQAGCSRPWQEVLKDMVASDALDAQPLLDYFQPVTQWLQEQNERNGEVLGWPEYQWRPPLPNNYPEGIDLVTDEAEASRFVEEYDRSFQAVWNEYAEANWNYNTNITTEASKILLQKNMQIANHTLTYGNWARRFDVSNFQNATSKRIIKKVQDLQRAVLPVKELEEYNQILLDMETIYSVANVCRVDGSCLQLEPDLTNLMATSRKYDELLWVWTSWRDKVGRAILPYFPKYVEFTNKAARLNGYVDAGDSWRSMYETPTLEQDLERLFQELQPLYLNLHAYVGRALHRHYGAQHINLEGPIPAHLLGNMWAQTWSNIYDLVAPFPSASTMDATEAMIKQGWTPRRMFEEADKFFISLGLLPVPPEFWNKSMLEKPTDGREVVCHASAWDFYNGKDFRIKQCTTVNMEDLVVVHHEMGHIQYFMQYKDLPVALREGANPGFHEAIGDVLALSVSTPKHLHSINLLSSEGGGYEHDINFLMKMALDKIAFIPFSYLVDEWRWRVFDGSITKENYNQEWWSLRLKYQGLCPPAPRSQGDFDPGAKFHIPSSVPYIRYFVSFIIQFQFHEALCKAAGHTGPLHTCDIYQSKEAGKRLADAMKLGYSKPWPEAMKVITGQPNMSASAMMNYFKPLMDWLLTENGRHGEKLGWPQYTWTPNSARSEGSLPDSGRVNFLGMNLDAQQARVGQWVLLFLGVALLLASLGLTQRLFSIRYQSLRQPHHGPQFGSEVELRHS
# Description: The ACE-inhibitory activity was evaluated according to the method reported in the literature by B. Holmquist et al., in Analytical Biochemistry 95, 540-548 (1979).
# […] of ACE (250 mU/ml purified by lung rabbit, EC 3.4.15.1 SIGMA) with 50 μl of the compound of formula I were preincubated in thermostated cuvettes at 37° C.
# The reaction was started by adding furylacryloylphenylalanylglycylglycine 0.8 mM (FAPGG-SIGMA).
# Contemporaneously, by using a Beckman DU-50 spectrophotometer provided with a program for calculating delta A/minutes and regression coefficients of the enzyme kinetics curves, the absorbance at 340 nm was recorded in continuo for 5 minutes.
# The percentage of the enzyme inhibition in the preparations treated with the compounds of formula I with respect to the untreated preparations was expressed as IC50 value (nM).
# (§1) The compounds of formula I were tested in the form of lithium or sodium salts.
# [2] = biological target: T2, NEP (Rattus norvegicus, UniProt P07861); experiment: NEP-inhibitory activity, in vitro (kidney cortex membranes, [3H][Leu5]-enkephaline substrate); format: biochemical, male Sprague-Dawley rats; conditions: rat kidney cortex membranes 5 μg/ml of proteins; [3H][Leu5]-enkephaline 15 nM; pH 7.4; 20 minutes at 30° C.; tested as lithium or sodium salts
# T2 construct: Membranes from kidney cortex were prepared; from tissue; host or cells: kidney cortex membranes of male Sprague-Dawley rats
# T2 sequence (P07861 1-750): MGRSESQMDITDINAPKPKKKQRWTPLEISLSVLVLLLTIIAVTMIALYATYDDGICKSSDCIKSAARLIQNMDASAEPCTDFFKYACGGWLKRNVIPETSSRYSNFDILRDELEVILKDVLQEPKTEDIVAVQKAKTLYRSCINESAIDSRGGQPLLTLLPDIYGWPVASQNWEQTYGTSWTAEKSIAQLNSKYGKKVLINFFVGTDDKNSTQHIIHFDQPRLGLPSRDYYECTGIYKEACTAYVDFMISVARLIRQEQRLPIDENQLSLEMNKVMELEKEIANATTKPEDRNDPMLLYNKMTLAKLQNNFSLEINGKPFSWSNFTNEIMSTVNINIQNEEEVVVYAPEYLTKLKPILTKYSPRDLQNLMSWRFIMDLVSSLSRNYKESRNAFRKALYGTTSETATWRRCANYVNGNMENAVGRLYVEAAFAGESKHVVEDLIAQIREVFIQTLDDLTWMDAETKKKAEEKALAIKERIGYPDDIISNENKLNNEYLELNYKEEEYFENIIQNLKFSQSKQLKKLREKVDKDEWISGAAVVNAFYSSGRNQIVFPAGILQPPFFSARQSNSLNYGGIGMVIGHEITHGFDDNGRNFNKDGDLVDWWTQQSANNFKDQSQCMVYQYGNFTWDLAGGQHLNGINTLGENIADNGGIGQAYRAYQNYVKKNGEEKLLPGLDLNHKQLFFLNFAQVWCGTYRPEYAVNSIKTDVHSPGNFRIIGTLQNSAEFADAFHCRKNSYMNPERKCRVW
# Description: The NEP-inhibitory activity was evaluated according to the method reported in the literature by C. Llorens et al., in Eur. J. Pharmacol., 69, (1981), 113-116.
# Membranes from kidney cortex were prepared according to the following procedure.
# By working at 0°-4° C., kidneys were removed from male Sprague-Dawley rats weighing approximately 300 g.
# Cortex was carefully dissected, finely minced and suspended in a homogenization buffer (10 mM sodium phosphate pH 7.4 containing 1 mM MgCl2, 30 mM NaCl, 0.02% NAN3) 1:15 weight/volume.
# The tissue was then homogenized for 30 seconds using an Ultra-Turrax homogenizer.
# Approximately 10 ml of homogenate were layered over 10 ml of sucrose (41% weight/volume) and centrifuged at 31200 rpm for 30 minutes at 4° C. in a fixed angle rotor.
# The membranes were collected from the buffer/sucrose interface, washed twice with 50 mM TRIS/HCl buffer (pH 7.4) and resuspended into the same buffer for storage.
# The membranes were stored in small aliquots at -80° C. until use. The NEP-inhibitory activity was evaluated by using the following method.
# Aliquots of the membrane suspension prepared as above described (concentration 5 μg/ml of proteins) were preincubated in the presence of an aminopeptidase inhibitor (Bestatin--1 mM) for 10 minutes at 30° C.
# [^3 H][Leu^5 ]-enkephaline (15 nM) and buffer TRIS/HCl pH 7.4 (50 mM) were added in order to obtain a final volume of 100 μl. Incubation (20 minutes at 30° C.) was stopped by adding HCl 0.1M (100 μl).
# The formation of the metabolite [^3 H]Tyr-Gly-Gly was quantified by chromatography on polystyrene columns (Porapak Q). The percentage of inhibition of the metabolite formation in the membrane preparations treated with the compounds of formula I, in comparison to the untreated membrane preparations, was expressed as IC50 value (nM).
# as §1
# [3] = tested on: thermolysin; conditions: J. Am. Chem. Soc. 1991, 113, 297-307; cited from earlier work
Structure (SMILES),IC50 [1],IC50 [2],inhibitory activity towards thermolysin (in words) [3]
"CC(C)CC(CP(=O)(O)CNC(=O)Cc1ccccc1)C(=O)N[C@@H](Cc1ccc(-c2ccccc2)cc1)C(=O)O (stereo partly drawn) [Compound 7, N-[3-[(phenylacetylaminomethyl)(hydroxy)phosphinyl]-2-isobutyl-propionyl]-(1,1'-biphenyl-4-yl)-L-alanine]",0.183 µM,0.0301 µM,–
CC(C)CC(CP(=O)(O)CNC(=O)OCc1ccccc1)C(=O)NC(Cc1ccccc1)C(=O)O (stereo not drawn),–,–,endowed with inhibitory activity towards thermolysin
"CC(C)CC(CP(=O)(O)CCCc1ccccc1)C(=O)N[C@@H](Cc1ccc(-c2ccccc2)cc1)C(=O)O (stereo partly drawn) [Compound 1, N-[3-[(3-phenylpropyl)(hydroxy)phosphinyl]-2-isobutyl-propionyl]-(1,1'-biphenyl-4-yl)-L-alanine dilithium salt]",0.07 µM,0.368 µM,–
"CC(C)CC(CP(=O)(O)CNC(=O)c1ccccc1)C(=O)N[C@@H](Cc1ccc(-c2ccccc2)cc1)C(=O)O (stereo partly drawn) [Compound 6, N-[3-[(benzoylaminomethyl)(hydroxy)phosphinyl]-2-isobutyl-propionyl]-(1,1'-biphenyl-4-yl)-L-alanine]",0.0046 µM,0.0077 µM,–
"CC(C)CC(CP(=O)(O)CCCCc1ccccc1)C(=O)N[C@@H](Cc1ccc(-c2ccccc2)cc1)C(=O)O (stereo partly drawn) [Compound 2, N-[3-[(4-phenylbutyl)(hydroxy)phosphinyl]-2-isobutyl-propionyl]-(1,1'-biphenyl-4-yl)-L-alanine disodium salt]",0.024 µM,0.22 µM,–
